# Data reported in doi:10.1101/2025.04.25.650653, “Hierarchical small molecule inhibition of MYST acetyltransferases” (bioRxiv, 2025).
# Tested on: histone modifications in MCF-7 cells
# Test: Histone modification analysis by bottom-up LC-MS/MS
# Type: cell-based
# Settings: for Average ratio, H2A1_12_17 unmod (AKAKTR): peptide H2A1_12_17 unmod; for Average ratio, H2A1_12_17 unmod (AKAKTR) / Average ratio, H2A3_12_17 K15me1 (AKAKSR) / Ratio, H2A1_12_17 unmod / Ratio, H2A3_12_17 K15me1: MCF-7; for Average ratio, H2A1_12_17 unmod (AKAKTR) / Average ratio, H2A3_12_17 K15me1 (AKAKSR): average of 3 replicates; for Average ratio, H2A3_12_17 K15me1 (AKAKSR): peptide H2A3_12_17 K15me1
# Text: In this approach. […] Histones are then extracted from cell pellets and chemically derivatized with propionic anhydride, digested with trypsin, subjected to a second round of propionylation, and analyzed by LC-MS/MS. Measuring the relative intensity of modified versus unmodified forms of individual histone peptides enables simultaneous monitoring of multiple potential biomarkers of MYST inhibition. To minimize false positives, we focused on abundant and reproducible modifications (average stoichiometry of greater than 1% across triplicate samples, standard deviation less than or equal to the average measurement). To account for potential histone modification crosstalk, changes in both acetylated and methylated peptides were evaluated. 38 modified peptides passed this reproducible detection threshold including several established KAT biomarkers[41] including H3K9Ac (KAT2A/B), H3K18Ac (KAT3A/B), H3K14Ac (KAT7), H3K23Ac (KAT6A/B), H4K16Ac (KAT8), and H2A.ZK4/K7Ac (KAT5; Fig. 4B).
# Histone modification analysis
# MCF-7 cells were cultured at 37 °C under 5% CO2 in EMEM (Quality Biological, 112-016-101) with 0.01 mg/mL human recombinant insulin (Sigma Aldrich, 91077C), 2 mM L-glutamine (Quality Biological, 118- […]
# human recombinant insulin.
# 1119, WM-3835). Following 24 h inhibitor treatment, cells were washed with ice-cold 1× PBS and scraped in 150 µL of Nuclear Isolation Buffer (NIB) containing 0.1% NP-40 for histone extraction using a modified protocol from the Garcia laboratory. 9 Briefly, cell suspensions were incubated on ice for 5 minutes, and […]
# nuclei were pelleted by centrifugation (600 rcf, 4°C, 5 min). Pelleted nuclei were washed twice with 150 μL of detergent-free NIB buffer, followed by centrifugation (600 rcf, 4°C, 5 min) to remove all detergent.
# Nuclei were then resuspended in 400 μL of 0.4 N H₂SO₄ and rotated at 4°C overnight for acid extraction of histones. The following day, samples were centrifuged (11,000 rcf, 4°C, 10 min) and the histone-containing supernatant was transferred to a fresh tube. Trichloroacetic acid (100% TCA) was added to achieve a final concentration of 20% (v/v), tubes were inverted once to mix, and histone precipitation was performed on ice for at least 3 hours or overnight at 4°C. Precipitated histones were collected by centrifugation (11,000 rcf, 4°C, 10 min) and the supernatant carefully removed, leaving a visible film of histones on the tube wall or bottom. Histone pellets were subjected to sequential washes with 1 mL of ice-cold acidified acetone (0.1% 12 N HCl) followed by 1 mL of 100% ice-cold acetone, with centrifugation (11,000 rcf, 4°C, 5 min) after each wash. Samples were air-dried at room temperature, resuspended in 40 µL of ddH₂O, and protein […]
# analysis, 1-2 µg of purified histones were loaded per lane and processed according to the general immunoblotting protocol described in General Materials and Methods.
# Analysis of histone modifications by LC-MS/MS
# Preparation of histone samples for LC-MS/MS was performed analogously to the procedure for immunoblotting above, with the following modifications. MCF7 cells (4.2 × 106) were seeded in 15 cm dishes and treated with PF-9363 or vehicle. Experiments were performed in triplicate. Following treatment and PBS washing, cells were scraped and collected in 15 mL falcon tubes, pelleted (500 rcf, 4°C, 5 min), resuspended in 1 mL cold PBS, transferred to microcentrifuge tubes, and pelleted again before flash-freezing in liquid nitrogen for storage at -80°C. For extraction, cell pellets (~100 μL) were resuspended in NIB buffer at a 1:10 ratio, and cells were lysed with NIB buffer containing 0.2% NP-40 for 8 minutes on ice. Nuclei were pelleted at 1,000 rcf for 8 minutes and washed three times with 500 μL detergent-free NIB buffer. Histones were extracted using 800 μL of 0.2 M H₂SO₄, and after centrifugation (3,400 rcf, 4°C, 10
smiles,measurement,setting,value
COc1cccc(OC)c1S(=O)(=O)Nc1noc2cc(Cn3cccn3)cc(OC)c12 [PF-9363],"Average ratio, H2A1_1_11 K5ac",PF-9363 (0.1 mM),0.8521
same,"Average ratio, H2A1_4_11 K5ac",PF-9363 (0.1 mM),0.0421
same,"Average ratio, H2A1_4_11 K9ac",PF-9363 (0.1 mM),0.0404
same,"Average ratio, H2A1_4_11 unmod",PF-9363 (0.1 mM),0.9065
same,"Average ratio, H2A1_36_42 unmod",PF-9363 (0.1 mM),0.9991
same,"Average ratio, H2A3_36_42 unmod",PF-9363 (0.1 mM),1.0000
same,"Average ratio, H2AJ_4_11 K5acK9ac",PF-9363 (0.1 mM),0.8702
same,"Average ratio, H2AV_1_19 K4ac",PF-9363 (0.1 mM),0.0404
same,"Average ratio, H2AV_1_19 unmod",PF-9363 (0.1 mM),0.8917
same,"Average ratio, H2AX_36_42 unmod",PF-9363 (0.1 mM),1.0000
same,"Average ratio, H2AZ_1_19 K11ac",PF-9363 (0.1 mM),0.0091
same,"Average ratio, H2AZ_1_19 unmod",PF-9363 (0.1 mM),0.8729
same,"Average ratio, H3_73_83 K79me1",PF-9363 (0.1 mM),0.0887
same,"Average ratio, H3_73_83 K79me2",PF-9363 (0.1 mM),0.0735
same,"Average ratio, H3_73_83 unmod",PF-9363 (0.1 mM),0.8364
same,"Average ratio, H4_4_17 K12acK16ac",PF-9363 (0.1 mM),0.0092
same,"Average ratio, H4_4_17 unmod",PF-9363 (0.1 mM),0.6321
same,"Average ratio, H4_20_23 K20me1",PF-9363 (0.1 mM),0.0308
same,"Average ratio, H4_20_23 unmod",PF-9363 (0.1 mM),0.0293
same,"Average ratio, H2A1_12_17 unmod (AKAKTR)",PF-9363 (0.1 mM),0.4892
same,"Average ratio, H2A3_12_17 K15me1 (AKAKSR)",PF-9363 (0.1 mM),0.4715
same,"Average ratio, H2A1_1_11 K5ac",PF-9363 (30 mM),0.8566
same,"Average ratio, H2A1_4_11 K5ac",PF-9363 (30 mM),0.0480
same,"Average ratio, H2A1_4_11 K9ac",PF-9363 (30 mM),0.0347
same,"Average ratio, H2A1_4_11 unmod",PF-9363 (30 mM),0.9114
same,"Average ratio, H2A1_36_42 unmod",PF-9363 (30 mM),0.9988
same,"Average ratio, H2A3_36_42 unmod",PF-9363 (30 mM),1.0000
same,"Average ratio, H2AJ_4_11 K5acK9ac",PF-9363 (30 mM),0.8922
same,"Average ratio, H2AV_1_19 K4ac",PF-9363 (30 mM),0.0413
same,"Average ratio, H2AV_1_19 unmod",PF-9363 (30 mM),0.7807
same,"Average ratio, H2AX_4_11 unmod",PF-9363 (30 mM),0.3301
same,"Average ratio, H2AX_36_42 unmod",PF-9363 (30 mM),1.0000
same,"Average ratio, H2AZ_1_19 K11ac",PF-9363 (30 mM),0.0141
same,"Average ratio, H2AZ_1_19 unmod",PF-9363 (30 mM),0.9481
same,"Average ratio, H3_73_83 K79me1",PF-9363 (30 mM),0.0821
same,"Average ratio, H3_73_83 K79me2",PF-9363 (30 mM),0.0558
same,"Average ratio, H3_73_83 unmod",PF-9363 (30 mM),0.8605
same,"Average ratio, H4_4_17 K12acK16ac",PF-9363 (30 mM),0.1819
same,"Average ratio, H4_4_17 unmod",PF-9363 (30 mM),0.4341
same,"Average ratio, H4_20_23 K20me1",PF-9363 (30 mM),0.0237
same,"Average ratio, H4_20_23 unmod",PF-9363 (30 mM),0.0213
same,"Average ratio, H2A1_12_17 unmod (AKAKTR)",PF-9363 (30 mM),0.5017
same,"Average ratio, H2A3_12_17 K15me1 (AKAKSR)",PF-9363 (30 mM),0.4920
same,"Ratio, H2A1_12_17 unmod","Replicate 1, PF-9363 0.1",0.4969
same,"Ratio, H2A3_12_17 K15me1","Replicate 1, PF-9363 0.1",0.4799
same,"Ratio, H2A1_12_17 unmod","Replicate 1, PF-9363 1",0.5198
same,"Ratio, H2A3_12_17 K15me1","Replicate 1, PF-9363 1",0.5023
same,"Ratio, H2A1_12_17 unmod","Replicate 1, PF-9363 10",0.4982
same,"Ratio, H2A3_12_17 K15me1","Replicate 1, PF-9363 10",0.4848
same,"Ratio, H2A1_12_17 unmod","Replicate 1, PF-9363 30",0.5053
same,"Ratio, H2A3_12_17 K15me1","Replicate 1, PF-9363 30",0.497
same,"Ratio, H2A1_12_17 unmod","Replicate 2, PF-9363 0.1",0.484
same,"Ratio, H2A3_12_17 K15me1","Replicate 2, PF-9363 0.1",0.4685
same,"Ratio, H2A1_12_17 unmod","Replicate 2, PF-9363 1",0.4972
same,"Ratio, H2A3_12_17 K15me1","Replicate 2, PF-9363 1",0.4788
same,"Ratio, H2A1_12_17 unmod","Replicate 2, PF-9363 10",0.498
same,"Ratio, H2A3_12_17 K15me1","Replicate 2, PF-9363 10",0.4832
